From patent US20040097408A1, “Compounds regulating cell proliferation and differentiation” (priority 2001, published 2004)

Tests used:
[1] = system: mitochondria of cancer cells; assay: accumulation of QR in mitochondria; type: cell-based
[2] = system: EpH4-A6, FKBR3, MDA-MD-468 and MCF-7 cells; assay: cytoblot of QR on transformed cells; type: cell-based
Source text: (§1) The compound was included in cytoblot experiments, as described above, on the following cells: EpH4-A6 and control EpH4-EV cells and the following human breast cancer cell lines: FKBR3 (Neu positive cells); MDA-MD-468 (which over-express EGFR); and MCF-7 (which over-express Her3/ErbB3; EGFR and Neu).

control EpH4-EV cells = assay: cytoblot of QR on normal cells; type: cell-based, mouse
Source text: as §1

A6 cells = assay: effect of FCCP and valinomycin on F16 accumulation in mitochondria; type: cell-based, mouse; conditions: F16 3 μM
Experimental: In order to test the contribution of the mitochondrial membrane potential (ΔΨm) to the accumulation of F16 in mitochondria, the effect of FCCP, an uncoupler of mitochondrial respiration, and the effect of valinomycin, a potassium ionosphore, were tested.
The effect of the protonophore FCCP on F16 accumulation was performed as previously done for the colocalization experiments described above. EpH4-A6 cells preincubated with F16 (3 μM) were subsequently treated with 5 μM FCCP. Images were acquired immediately before, 1 min and 5 min after FCCP addition and visulized under 40× magnification.

SMILES	accumulation in mitochondria [1]	proliferation of transformed cells at 10 nM ([2]; 10 nM)	proliferation of transformed cells at 100 nM ([2]; 100 nM)	concentration inhibiting proliferation of transformed cells (as low as) ([2]; all of the transformed cells tested) [nM]	concentration inhibiting normal cells (control EpH4-EV cells) [µM]	effect of preincubation on F16 entry and accumulation in mitochondria (A6 cells)
CC[n+]1c(/C=C/c2ccc(N(C)C)cc2)ccc2ccccc21 [QR, Quinaldine Red]	accumulate in mitochondria of cancer cells and essentially not in mitochondria of normal cells	partially inhibited	essentially completely inhibited	10	≥ 10	
CC(C)[C@@H]1NC(=O)[C@H](C)OC(=O)[C@@H](C(C)C)NC(=O)[C@@H](C(C)C)OC(=O)[C@H](C(C)C)NC(=O)[C@H](C)OC(=O)[C@@H](C(C)C)NC(=O)[C@@H](C(C)C)OC(=O)[C@H](C(C)C)NC(=O)[C@H](C)OC(=O)[C@@H](C(C)C)NC(=O)[C@@H](C(C)C)OC1=O [valinomycin]						retarded the entry and greatly reduced the overall accumulation of F16 inside mitochondria
N#CC(C#N)=NNc1ccc(OC(F)(F)F)cc1 [FCCP]						retarded the entry and greatly reduced the overall accumulation of F16 inside mitochondria
